Test results as given in ChEMBL document CHEMBL1132057, “Effects of 3alpha- and 3beta-galactosylated alpha-galactosylceramides on the immune system” (1999).

Assays:
Format in all cases: functional
Mus musculus [1] = species on record: Mus musculus; experiment: Effect on the proliferation of murine spleen cells evaluated in terms of [3H]TdR uptake into the cells at a concentration of 100 ng/mL
Mus musculus [2] = species on record: Mus musculus; experiment: Effect on the proliferation of murine spleen cells evaluated in terms of [3H]TdR uptake into the cells at a concentration of 10 ng/mL
Mus musculus [3] = species on record: Mus musculus; experiment: Effect on the proliferation of murine spleen cells evaluated in terms of [3H]TdR uptake into the cells at a concentration of 1 ng/mL

## CCCCCCCCCCCCCCCCCCCCCC[C@@H](O)C(=O)N[C@@H](CO[C@H]1O[C@@H](CO)[C@H](O)[C@H](O)[C@@H]1O)[C@@H](CCCCCCCCCCCCCCC)O[C@@H]1O[C@@H](CO)[C@H](O)[C@H](O)[C@@H]1O
Mus musculus [1]
  3H-TdR incorpolation: 45036 c.p.m.
Mus musculus [2]
  3H-TdR incorpolation: 13195 c.p.m.
Mus musculus [3]
  3H-TdR incorpolation: 7892 c.p.m.

## CCCCCCCCCCCCCCC[C@@H](O)[C@H](CO[C@H]1O[C@@H](CO)[C@H](O)[C@H](O)[C@@H]1O)NC(=O)CCCCCCCCCCCCC
Mus musculus [1]
  3H-TdR incorpolation: 44395 c.p.m.
Mus musculus [2]
  3H-TdR incorpolation: 44395 c.p.m.
Mus musculus [3]
  3H-TdR incorpolation: 9018 c.p.m.

## CCCCCCCCCCCCCCC[C@@H](O[C@H]1O[C@@H](CO)[C@H](O)[C@H](O)[C@@H]1O)[C@H](CO)NC(=O)CCCCCCCCCCCCC
Mus musculus [1]
  3H-TdR incorpolation: 6141 c.p.m.
Mus musculus [2]
  3H-TdR incorpolation: 7412 c.p.m.
Mus musculus [3]
  3H-TdR incorpolation: 7722 c.p.m.

## CCCCCCCCCCCCCCCCCCCCCC[C@@H](O)C(=O)N[C@@H](CO[C@H]1O[C@@H](CO)[C@H](O)[C@H](O)[C@@H]1O)[C@@H](CCCCCCCCCCCCCCC)O[C@H]1O[C@@H](CO)[C@H](O)[C@H](O)[C@@H]1O
Mus musculus [1]
  3H-TdR incorpolation: 44867 c.p.m.
Mus musculus [2]
  3H-TdR incorpolation: 34892 c.p.m.
Mus musculus [3]
  3H-TdR incorpolation: 16138 c.p.m.

## CCCCCCCCCCCCCCCCCCCCCC[C@@H](O)C(=O)N[C@@H](CO[C@H]1O[C@@H](CO)[C@H](O)[C@H](O)[C@@H]1O)[C@H](O)CCCCCCCCCCCCCCC
Mus musculus [1]
  3H-TdR incorpolation: 45966 c.p.m.
Mus musculus [2]
  3H-TdR incorpolation: 20283 c.p.m.
Mus musculus [3]
  3H-TdR incorpolation: 9454 c.p.m.
